Results on 2 compounds are retold here after paper PMC12067145 (ACS Medicinal Chemistry Letters, 2025).

Structures are written as SMILES.

In general, % Inhibition refers to the relative decrease from the control value, in per cent. Broadly, the inhibition is the percentage by which the read-out fell short of the control. Read a high inhibition as a response far below the control.

The nature of data set [1]: Plasma protein binding (mouse). Format: in vitro ADME. Conditions: pH 7.4, read-out: PPB mouse (converted). How it is done: (§1) 0.3% DMSO - ΔRatio of 1 µM control compound)x100
In vitro Plasma protein binding and Brain homogenate binding: Determination of fraction unbound (f u) in plasma was conducted in vitro via equilibrium dialysis using HTDialysis (HTD) membrane plates. The top half of the plate was filled with 100 uL of Dubelco’s Phosphate Buffered Saline, pH 7.4 (DPBS). Compounds were diluted into plasma from each species (5 µM final concentration), which was aliquoted in triplicate to the ‘bottom half’ of the prepared HTD plate wells. The HTD plate was sealed and incubated for 6 hours at 37 °C. Following incubation, each well (both top and bottom halves) were transferred (20 µL) to the corresponding wells of a 96-shallow-well (V-bottom) plate. The daughter plates were then matrix-matched (DPBS side wells received equal volume of plasma, and plasma side wells received equal volume of DPBS), and extraction solution (120 µL; acetonitrile containing 50 nM carbamazepine as IS) was added to all wells of both daughter plates to precipitate protein and extract test article. The plates were then sealed and centrifuged (3500 rcf) for 10 minutes at ambient temperature. Supernatant (60 µL) from each well of the daughter plates was then transferred to the corresponding wells of new daughter plates (96-shallow-well, V bottom) containing water (Milli-Q, 60 µL/well), and the plates were sealed in preparation for LC-MS/MS analysis (see LC-MS/MS analysis method below).
The unbound fraction (f u) was calculated following the equation below, and mean values for each species were calculated from 3 replicates. A similar approach was used to determine the degree of brain homogenate binding, which employed the same methodology and procedure with the following modifications: 1) a final compound concentration of 1 μM was used, 2) naïve rat brains were homogenized in DPBS (1:3 composition of brain: DPBS, w/w) using a Mini-Bead Beater™ machine in order to obtain brain homogenate, which was then treated in the same manner as the plasma samples in the previously described plasma protein binding assay. Fraction unbound for both plasma and brain samples was determined using Equation 4.

Data set [2] is described as follows: Brain homogenate binding (mouse). Format: in vitro ADME. How it is done:
as §1
In vitro Plasma protein binding and Brain homogenate binding: Determination of fraction unbound (f u) in plasma was conducted in vitro via equilibrium dialysis using HTDialysis (HTD) membrane plates. The top half of the plate was filled with 100 uL of Dubelco’s Phosphate Buffered Saline, pH 7.4 (DPBS). Compounds were diluted into plasma from each species (5 µM final concentration), which was aliquoted in triplicate to the ‘bottom half’ of the prepared HTD plate wells. The HTD plate was sealed and incubated for 6 hours at 37 °C. […]
The unbound fraction (f u) was calculated following the equation below, and mean values for each species were calculated from 3 replicates. […] Fraction unbound for both plasma and brain samples was determined using Equation 4. […]
The diluted fraction unbound (fu2) in brain was calculated in the same manner by using brain homogenate rather than plasma. Undiluted fraction unbound for the brain was calculated using […]
were incubated in 100 mM potassium phosphate pH 7.4 buffer with 3 mM MgCl2 at 37 °C with constant shaking. […] The in vitro half-life (T 1/2, min, Eq. 1), intrinsic clearance (CLint, mL/min/kg, Eq. 2), and subsequent predicted hepatic clearance (CLhep, mL/min/kg, Eq. 3) were determined employing the following equations: […]

The subject of data set [3] is GABAA, Flunitrazepam, Central. As to the kind of experiment: Eurofins lead profiling screen (radioligand binding). More on the design: species or system Rat.
The target of the next data set is Melatonin MT1 (Homo sapiens, UniProt P48039). The data set is described as above.
Chain of Melatonin MT1 (P48039 whole entry): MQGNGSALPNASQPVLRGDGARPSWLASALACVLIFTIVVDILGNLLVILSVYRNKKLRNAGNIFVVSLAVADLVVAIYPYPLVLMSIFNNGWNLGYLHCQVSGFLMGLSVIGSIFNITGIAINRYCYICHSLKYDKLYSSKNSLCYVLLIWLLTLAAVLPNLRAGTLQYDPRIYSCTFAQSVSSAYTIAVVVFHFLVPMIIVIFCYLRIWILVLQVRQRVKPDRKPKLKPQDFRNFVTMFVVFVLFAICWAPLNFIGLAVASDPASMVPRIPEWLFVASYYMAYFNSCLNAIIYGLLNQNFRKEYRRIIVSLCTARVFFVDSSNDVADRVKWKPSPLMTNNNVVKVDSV
Another data set concerns the target Androgen (Testosterone) (Homo sapiens, UniProt P10275). The description is as above.
A further data set concerns Thyroid Hormone. The description is as above. Further details: species or system Rat.

Chain of Androgen (Testosterone) (P10275 whole entry): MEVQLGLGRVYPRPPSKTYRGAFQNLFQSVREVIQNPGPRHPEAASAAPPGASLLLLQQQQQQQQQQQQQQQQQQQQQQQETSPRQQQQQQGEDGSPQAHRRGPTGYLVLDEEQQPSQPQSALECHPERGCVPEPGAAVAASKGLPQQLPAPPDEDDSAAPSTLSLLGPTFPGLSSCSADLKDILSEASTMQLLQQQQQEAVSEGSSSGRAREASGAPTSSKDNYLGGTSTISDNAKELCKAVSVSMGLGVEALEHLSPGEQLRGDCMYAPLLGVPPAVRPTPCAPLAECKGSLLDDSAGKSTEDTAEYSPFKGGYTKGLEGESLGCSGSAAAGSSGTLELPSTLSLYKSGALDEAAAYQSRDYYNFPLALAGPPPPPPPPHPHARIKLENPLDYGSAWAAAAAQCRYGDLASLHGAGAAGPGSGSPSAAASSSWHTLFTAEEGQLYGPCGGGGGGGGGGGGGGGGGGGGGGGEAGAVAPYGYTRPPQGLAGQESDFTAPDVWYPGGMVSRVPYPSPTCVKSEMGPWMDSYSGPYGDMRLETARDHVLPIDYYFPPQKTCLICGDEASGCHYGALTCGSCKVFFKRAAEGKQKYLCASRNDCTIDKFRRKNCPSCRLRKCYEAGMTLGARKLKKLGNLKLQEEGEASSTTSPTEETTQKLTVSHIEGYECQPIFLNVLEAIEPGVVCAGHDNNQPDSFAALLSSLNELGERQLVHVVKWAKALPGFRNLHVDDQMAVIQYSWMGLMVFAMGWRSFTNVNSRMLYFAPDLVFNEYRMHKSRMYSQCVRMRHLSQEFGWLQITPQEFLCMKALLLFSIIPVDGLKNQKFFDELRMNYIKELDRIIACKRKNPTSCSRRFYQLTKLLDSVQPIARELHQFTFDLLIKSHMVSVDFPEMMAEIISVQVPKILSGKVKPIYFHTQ

As for `Cc1cc(C#Cc2ccc(F)cc2)cnc1NC(=O)c1cc(NC(=O)OC(C)(C)C)ccc1Cl` [Compound 14c], the fraction unbound at 6 h, 5 µM in data set [1] was 0.016. The “brain homogenate binding mouse” value in data set [2] is 99.4%.
With `O=C(NCc1ccc(OC(F)(F)F)cc1F)c1ccc2ncnn2c1` [ONO-2920632], the “% Inhibition at 10 µM” value in data set [3] is listed as -9%; in the data set with Thyroid Hormone, 3%. Besides, the inhibition at 10 µM at Melatonin MT1 was 29%; on Androgen (Testosterone), 7%.
